For test [1], the system named is VEGF promoter constructs pVEGF1 and pVEGF2. The experiment in a line: VEGF promoter (pVEGF1/pVEGF2) luciferase transactivation in Panc-1 cells. Format: cell-based. As to conditions: Panc-1 cells; for transactivation of pVEGF2, concentration dependence: 20-80 μM. How it is done:
Transfection of Panc-1 cells with pVEGF1 and pVEGF2 and treatment with 50 μM ampiroxicam and tolfenamic acid (FIGS. 2A, 2B) or diclofenac sodium (FIGS. 2C, 2D) with pVEGF1 or pVEGF2 constructs. Cells were transfected with pVEGF1 or pVEGF2 treated with DMSO, 50 μM ampiroxicam, tolfenamic acid, or diclofenac sodium, and luciferase activity determined. Transfection of L3.6pl cells with pVEGF1 (FIG. 2E) or pVEGF2 constructs (FIG. 2F). […] Panc-1 cells were transfected with pVEGF2, treated with 20, 40, 60 or 80 μM ampiroxicam or tolfenamic acid, and luciferase determined. Results presented herein are means ±SE for three separate determinations per treatment group, and significant (p<0.05) decrease in luciferase activity is indicated by an asterisk.
Cells are cultured in 6-well plates in 2 ml of DME/F12 medium supplemented with 5% fetal bovine serum. After 16-20 hr when cells are 50-60% confluent, reporter gene constructs are transfected using LIPOFECTAMINE™ reagent (Invitrogen, Carlsbad, Calif.). The effects of the selective non-steroidal anti-inflammatory drugs on transactivation are investigated in Panc1 and L3.6pl cells co-transfected with different VEGF constructs (500 ng). […] For proteasome inhibitor experiments, cells will be co-treated with 2 μM lactacystin, and for electrophoretic mobility shift assay (EMSA), nuclear extracts from Panc1 and L3.6pl cells are isolated as described, and aliquots will be stored at −80° C. until used (Abdelrahim et al, 2004; Abdelrahim et al, 2005).
Previous studies have shown COX-2 inhibitors or small interfering RNAs for Sp proteins decreased vascular endothelial growth factor expression in colon and pancreatic cells (Abdelrahim et al, 2005; Baker et al, 2002; Masferrer et al, 2000; Bouwman et al, 2002). The effects of DMSO, 50 μM tolfenamic acid and 50 μM ampiroxicam on vascular endothelial growth factor expression were initially investigated in Panc-1 cells transfected with the pVEGF1 and pVEGF2 constructs, which contain −2018 to +50 and −131 to +54 VEGF promoter inserts, respectively (FIGS. 2A and 2B).

The subject of the next test is VEGF. The experiment in a line: Immunostaining of VEGF in Panc-1 cells. Particulars: 50 μM, 48 hr. Format: cell-based. How it is done: Panc1 cells are seeded in LAB-TEK® chamber slides (Nalge Nunc International, Naperville, Ill.) at 100,000 cells/well in DME/F12 medium supplemented with 5% fetal bovine serum. Cells are treated with the selected non-steroidal anti-inflammatory drugs and after 48 hr, the media chamber is detached and the remaining glass slides washed in Dulbecco's phosphate buffered saline (PBS). The immunostaining for vascular endothelial growth factor (VEGF) is determined essentially as previously described (Abdelrahim et al, 2005). Briefly, the glass slides are fixed with cold (-20° C.) methanol for 10 min and washed in 0.3% PBS/Tween for 5 min (two times) before blocking with 5% goat serum in antibody dilution buffer (stock solution: 100 ml of PBS/Tween, Ig of bovine serum albumin, 45 ml of glycerol, pH 8.0) for 1 hr at 20° C. After removal of the blocking solution, VEGF rabbit polyclonal antibody (A-20) is added in antibody dilution buffer (1:200) and incubated for 12 hr at 4° C. Slides are washed for 10 min with 0.3% Tween in 0.02 M phosphate buffered saline (three times) and incubated with fluorescein isothiocyanate-conjugated (FITC) goat anti-rabbit antibodies (1:1000 dilution) for 2 hr at 20° C. Slides are then washed for 10 min in 0.3% PBS-Tween (four times). […]

The subject of test [2] is VEGF-B/VEGFR1 signaling (MAPK1/2 phosphorylation). The experiment in a line: VEGF-B activation of MAPK in L3.6pl cells. It is filed as cell-based, human. Particulars: 50 μM pretreatment for 36 hr, VEGF-B 5 or 10 min.
Protocol: Cells were pretreated with DMSO, 50 μM ampiroxicam, or 50 μM tolfenamic acid for 36 hr; VEGF-B (50 ng/ml) was added for 5 or 10 min, and whole cell lysates were obtained and analyzed by Western blot.
Test [3] has as its system Egr-1 protein. The test is described as follows: Egr-1 protein expression in Panc-1 cells, Western blot. As to conditions: 50 μM, 48 h. Format: cell-based. How it is done:
(§1) Cells are washed once with phosphate buffered saline PBS and collected by scraping in 200 μL of lysis buffer [50 mM HEPES, 0.5M sodium chloride, 1.5 mM magnesium chloride, 1 mM EGTA, 10% (v/v) glycerol, 1% Triton X-100, 5 μL/ml of Protease Inhibitor Cocktail (Sigma)]. The lysates from the cells are incubated on ice for 1 hr with intermittent vortexing followed by centrifugation at 40,000 g for 10 min at 4° C. Equal amounts of protein (60 μg) from each treatment group are diluted with loading buffer, boiled and loaded onto 10 and 12.5% SDS-polyacrylamide gel. For vascular endothelial growth factor immunoblots, 100 μg of protein are used. Samples are electrophoresed, transferred to membranes, and proteins detected by incubation with polyclonal primary antibodies Sp1, Sp3, Sp4, HDAC, VEGF (a-20), c-Met, surviving, VEGF, cleaved PARP, and β-tubulin (H-235) followed by blotting with appropriate horseradish peroxidase-conjugated secondary antibody as previously described (Abdelrahim et al, 2004). After autoradiography, band intensities are determined by a scanning laser densitometer (Sharp Electronics Corporation, Mahwah, N.J.) using ZERO-D SCANALYTICS software (Scanalytics Corporation, Billerica, Mass.).
(§2) The proximal region of the VEGFR1 promoter contains GC-rich and Egr-1 sites. […]
In general terms: In western blotting, separated proteins are transferred to a membrane and probed.

The subject of test [4] is Egr-1 protein. The test is described as follows: Egr-1 protein expression in L3.6pl cells, Western blot. Format: cell-based, human. Particulars: 50 μM, 48 h. The method, then:
as §1, §2

The values below come from patent publication US20080261911A1, “Uses of diphenyl/diphenylamine carboxylic acids” (priority 2006, published 2008).

Turning to `CCOC(=O)OC(C)OC1=C(C(=O)Nc2ccccn2)N(C)S(=O)(=O)c2ccccc21` (stereo not shown) [ampiroxicam], the “luciferase activity, pVEGF1 and pVEGF2 constructs” value in test [1] (50 μM) is listed as “but not ampiroxicam, significantly decreased activities”. Further, the “luciferase activity, pVEGF2” value in test [1] (50 μM, in presence or absence of lactacystin) is “did not affect luciferase activity”. The “transactivation of pVEGF2, concentration dependence” value in test [1] is on record as “showed no effect”. Also, in the test with VEGF, the “immunostaining of secreted vascular endothelial growth factor protein” value is “significant lawn of extracellular vascular endothelial growth factor staining”. Besides, the “VEGF-B-induced phosphorylation of MAPK1/2” value in test [2] is recorded as “increased phosphorylation of MAPK1/2”. Further, the Egr-1 protein result in the test on Egr-1 protein [3] and in the test on Egr-1 protein [4] was “unchanged in all treatment groups” in each case.
In the case of `Cc1c(Cl)cccc1Nc1ccccc1C(=O)O` [tolfenamic acid], the “luciferase activity, pVEGF1 and pVEGF2 constructs” value in test [1] (50 μM) is listed as “significantly decreased activities”. The “transactivation of pVEGF2, concentration dependence” value in test [1] is “concentration-dependent decrease in transactivation”. In addition, in the test with VEGF, the “immunostaining of secreted vascular endothelial growth factor protein” value is “almost non-detectable”. The “VEGF-B-induced phosphorylation of MAPK1/2” value in test [2] is on record as “decreased phospho-MARK1/2”. The Egr-1 protein entry with Egr-1 protein [3] and in the test with Egr-1 protein [4] was “unchanged in all treatment groups” in each case.
